# Laboratory results reported in patent EP0574185B1, “PGE1 analogs” (NEWPHARMA INTERNATIONAL CORPORATION, priority 1992, dated 1993).
# What was measured:
# patients = settings: three or four suppositories of 1 mg at regular intervals; various studies; cited from earlier work
# Swiss male mice = experiment: Motor activity in mice (rota-rod); settings: 5 mg/kg, i.p. (table); positive control
# platelets = settings: background statement; cited from earlier work
smiles,measurement,setting,value
"CCCCC(C)(C)[C@H](O)/C=C/[C@H]1[C@H](O)CC(=O)[C@@H]1CCCC/C=C/C(=O)OC (relative stereo) [gemeprost, 16,16-dimethyl-trans-Δ^2-PGE1 methyl ester]",complete abortions (% of the patients),patients,more than 90%
"CN1C(=O)CN=C(c2ccccc2)c2cc(Cl)ccc21 [Diazepam, reference compound]",Fraction (animals fallen before 300 sec/total number of animals),Swiss male mice,8/10
CCCCC[C@H](O)/C=C/[C@H]1C(=O)C[C@H](O)[C@@H]1C/C=C\CCCC(=O)O [PGD2],"concentration that inhibits platelets aggregation ""in vitro""",platelets,0.1 µM
CCCCC[C@H](O)/C=C/[C@H]1[C@H](O)CC(=O)[C@@H]1CCCCCCC(=O)O [PGE1],"concentration that inhibits platelets aggregation ""in vitro""",platelets,0.1 µM
